Reference: US4521538A (Medosan Industrie Biochimiche Riunite S.p.A., priority 1982, dated 1985)
Where two headings read alike, the source gives them in different places.

Legend:
[1] = Antitussive activity (method of Y. Kase); type: in vivo, albino male Guinea-pigs
Description: The antitussive effect on albino male Guinea-pigs weighing 300 g was evaluated using the method described by Y. Kase (Selected Pharmacological Testing Methods, p. 363, Marcel Dekker Inc., New York, 1968).

[2] = Analgesic activity, phenylquinone-induced writhing test; type: in vivo
Description: The inhibiting effect on the abdominal contractions induced by phenyl-p-quinone was calculated by the following formula: [formula]
Table II lists the doses, routes of administration and their efficacy expressed as percentage of protection.

[3] = Mucolytic activity in vitro, consistency of human expectoration
Description: The experiment was carried out "in vitro" according to the method of R. S. Hirsch (Bull. […] Table IV lists the percentage decrease of the expectoration consistency provoked by the compound of this invention in comparison with dithiothreitol and acetylcysteine which are known mucolytic agents.

[4] = Antipyretic activity, yeast-induced hyperthermia; type: in vivo, albino male Wistar rats
From the text: (§1) The composition that had been administered via the oral and/or parenteral route, was in suspension of 0.5% carboxymethylcellulose in neutral pH physiological saline solution.

in vivo [5] = details: mouse
[6] = type: in vivo, male Wistar rats; details: for % incidence / 10 / gastric damage index / mean No. of lesions / mean severity: four days; for mean severity: scale 0 (no lesion) to 5 (perforations)
Description: Male Wistar rats weighing 180 g were randomized into groups of 10. Three doses of each compound were administered. One group received the vehicle alone (10 ml/kg b.w.). Each dose was given orally for four days consecutively and the rats were sacrificed on the fifth day for necropsy. The ulcerogenic effect was evaluated by the following scale:
(1) each haemorrhagic point at least 1 mm in diameter was scored as 1 lesion,
(2) haemorrhagic points less than 1 mm in diameter were scored in the following manner:
(c) 20 to 29=three lesions
(2) gastric mucosal irritation without haemorrhage: 1
(3) haemorrhagic points less than 1 mm in diameter: 2
(4) haemorrhagic points between 1 and 3 mm in diameter: 3
(5) haemorrhagic points larger than 3 mm in diameter: 4
By means of this scale it was possible to obtain the gastric damage index: [formula]

Solubility = type: physicochemical
healthy animals = test: General observation of toxic effects in animals at the doses used
From the text: as §1

in vivo [7] = details: rat
[8] = Antiinflammatory activity, carrageenin-induced oedema test; type: in vivo, rats
Description: This effect was evaluated by means of an experimental model reproducing acute inflammation in rats: for this purpose the carrageenin-induced oedema test was employed following the method described by C. A. Winter (J. Pharmac. Exp. […] Wong, J. F. Gardocki and T. P. Pruss, J. Pharmac. Exp. Ther. 185 (1): 127, 1973). Table I lists the tested compounds, the concentration thereof, routes of administration and relative percentage oedema inhibitions; the data are commented upon at the end of the Tables.

Compound: COc1ccccc1OC(=O)Cc1ccc(C(=O)c2ccc(C)cc2)n1C [1-methyl-5-p-toluoylpyrrole-2-acetic acid guaiacyl ester]
- % inhibition, amplitude of coughs ([1]; 50 mg/kg i.p.): 18%
- % inhibition, frequency of coughs ([1]; 50 mg/kg i.p.): 26%
- % inhibition, amplitude of coughs ([1]; 50 mg/kg per os): 16%
- % inhibition, frequency of coughs ([1]; 50 mg/kg per os): 22%
- % inhibition, amplitude of coughs ([1]; 75 mg/kg i.p.): 25%
- % inhibition, frequency of coughs ([1]; 75 mg/kg i.p.): 50%
- % inhibition, amplitude of coughs ([1]; 75 mg/kg per os): 19%
- % inhibition, frequency of coughs ([1]; 75 mg/kg per os): 45%
- % inhibition, amplitude of coughs ([1]; 100 mg/kg i.p.): 40%
- % inhibition, frequency of coughs ([1]; 100 mg/kg i.p.): 55%
- % inhibition, amplitude of coughs ([1]; 100 mg/kg per os): 38%
- % inhibition, frequency of coughs ([1]; 100 mg/kg per os): 56%
- antitussive activity in words ([1]; in vivo tests): good mucolytic and antitussive activity
- % protection ([2]; 5 mg/kg i.p.): 30.0%
- % protection ([2]; 5 mg/kg per os): 30.0%
- % protection ([2]; 10 mg/kg i.p.): 62.5%
- % protection ([2]; 10 mg/kg per os): 58.6%
- % protection ([2]; 20 mg/kg i.p.): 78.0%
- % protection ([2]; 20 mg/kg per os): 79.4%
- analgesic action in words ([2]; oral and/or parenteral): marked analgesic action
- % decrease of expectoration consistency ([3]; 1.0 M (9%), 12 experiments): 52%
- mucolytic activity in words ([3]; described as in vivo tests): good mucolytic and antitussive activity
- % temperature decrease ([4]; 50 mg/kg i.p., 1 h): 18.0%
- % temperature decrease ([4]; 50 mg/kg i.p., 2 h): 26.0%
- % temperature decrease ([4]; 50 mg/kg i.p., 3 h): 39.0%
- % temperature decrease ([4]; 50 mg/kg per os, 1 h): 16.0%
- % temperature decrease ([4]; 50 mg/kg per os, 2 h): 20.0%
- % temperature decrease ([4]; 50 mg/kg per os, 3 h): 33.0%
- % temperature decrease ([4]; 75 mg/kg i.p., 1 h): 30.0%
- % temperature decrease ([4]; 75 mg/kg i.p., 2 h): 35.0%
- % temperature decrease ([4]; 75 mg/kg i.p., 3 h): 56.0%
- % temperature decrease ([4]; 75 mg/kg per os, 1 h): 18.0%
- % temperature decrease ([4]; 75 mg/kg per os, 2 h): 27.0%
- % temperature decrease ([4]; 75 mg/kg per os, 3 h): 49.0%
- % temperature decrease ([4]; 100 mg/kg i.p., 1 h): 42.0%
- % temperature decrease ([4]; 100 mg/kg i.p., 2 h): 49.0%
- % temperature decrease ([4]; 100 mg/kg i.p., 3 h): 58.0%
- % temperature decrease ([4]; 100 mg/kg per os, 1 h): 29.0%
- % temperature decrease ([4]; 100 mg/kg per os, 2 h): 35.0%
- % temperature decrease ([4]; 100 mg/kg per os, 3 h): 50.0%
- antithermic activity in words ([4]; oral and/or parenteral): considerable antithermic activity
- LD50 (in vivo [5]; ip): 1200 mg/kg
- LD50 (in vivo [5]; po): > 1500 mg/kg
- % incidence / 10 ([6]; 50 mg/kg orally): 7
- gastric damage index ([6]; 50 mg/kg orally): 9
- mean No. of lesions ([6]; 50 mg/kg orally): 1
- mean severity ([6]; 50 mg/kg orally): 1
- % incidence / 10 ([6]; 100 mg/kg orally): 8
- gastric damage index ([6]; 100 mg/kg orally): 11
- mean No. of lesions ([6]; 100 mg/kg orally): 1
- mean severity ([6]; 100 mg/kg orally): 2
- % incidence / 10 ([6]; 200 mg/kg orally): 8
- gastric damage index ([6]; 200 mg/kg orally): 12
- mean No. of lesions ([6]; 200 mg/kg orally): 2
- mean severity ([6]; 200 mg/kg orally): 2
- ulcerogenic effect in words ([6]; number of gastric lesions and their severity (Table VI)): moderate
- gastrointestinal tolerability ([6]; rat, in vivo): perfectly tolerated by the gastrointestinal tract
- Solubility (Solubility): soluble in the usual organic solvents
- death (healthy animals; healthy animals, doses and routes used in the experiments, long- or short-term treatments): did not provoke death
- apparent signs of toxic effects (healthy animals; in vivo): nor apparent signs of toxic effects
- significant toxic effects (healthy animals; in vivo): did not provoke significant toxic effects
- therapeutical index (healthy animals; in vivo): high therapeutical index
- LD50 (in vivo [7]; ip): 1180 mg/kg
- LD50 (in vivo [7]; po): > 1500 mg/kg
- Oedema % inhibition ([8]; 25 mg/kg i.p., 2 h): 33.5%
- Oedema % inhibition ([8]; 25 mg/kg i.p., 4 h): 30.0%
- Oedema % inhibition ([8]; 25 mg/kg i.p., 6 h): 25.0%
- Oedema % inhibition ([8]; 25 mg/kg i.p., 24 h): 7.0%
- Oedema % inhibition ([8]; 25 mg/kg per os, 2 h): 27.0%
- Oedema % inhibition ([8]; 25 mg/kg per os, 4 h): 29.0%
- Oedema % inhibition ([8]; 25 mg/kg per os, 6 h): 28.0%
- Oedema % inhibition ([8]; 25 mg/kg per os, 24 h): 3.2%
- Oedema % inhibition ([8]; 50 mg/kg i.p., 2 h): 55.0%
- Oedema % inhibition ([8]; 50 mg/kg i.p., 4 h): 51.6%
- Oedema % inhibition ([8]; 50 mg/kg i.p., 6 h): 49.0%
- Oedema % inhibition ([8]; 50 mg/kg i.p., 24 h): 9.2%
- Oedema % inhibition ([8]; 50 mg/kg per os, 2 h): 49.0%
- Oedema % inhibition ([8]; 50 mg/kg per os, 4 h): 53.0%
- Oedema % inhibition ([8]; 50 mg/kg per os, 6 h): 51.0%
- Oedema % inhibition ([8]; 50 mg/kg per os, 24 h): 5.3%
- Oedema % inhibition ([8]; 100 mg/kg i.p., 2 h): 80.0%
- Oedema % inhibition ([8]; 100 mg/kg i.p., 4 h): 78.0%
- Oedema % inhibition ([8]; 100 mg/kg i.p., 6 h): 70.0%
- Oedema % inhibition ([8]; 100 mg/kg i.p., 24 h): 9.5%
- Oedema % inhibition ([8]; 100 mg/kg per os, 2 h): 71.6%
- Oedema % inhibition ([8]; 100 mg/kg per os, 4 h): 77.8%
- Oedema % inhibition ([8]; 100 mg/kg per os, 6 h): 77.0%
- Oedema % inhibition ([8]; 100 mg/kg per os, 24 h): 7.2%
- action against acute inflammation in words ([8]; oral and/or parenteral): inhibiting action against acute inflammation
